Here are results for 12 molecules from ChEMBL document CHEMBL1132843, “A convenient procedure for the synthesis of nonsymmetrical bivalent selective serotonin reuptake inhibitors using polymer-supported reagents” (Bioorg Med Chem Lett, 2000).

Assay [1] deals with Monoamine transporters; serotonin & dopamine (Rattus norvegicus) (UniProt P31652+P23977). Briefly: Ratio of selective inhibition of dopamine(DA) to serotonin(5-HT) was evaluated. In kind it is protein assay.
The target of assay [2] is Norepinephrine transporter (Rattus norvegicus, UniProt Q9WTR4). Briefly: Inhibition of norepinephrine transporter by inhibition of [3H]NE uptake into rat nerve endings (synaptosomes). In kind it is subcellular, Brain.
Sequence of Norepinephrine transporter (Q9WTR4 whole entry): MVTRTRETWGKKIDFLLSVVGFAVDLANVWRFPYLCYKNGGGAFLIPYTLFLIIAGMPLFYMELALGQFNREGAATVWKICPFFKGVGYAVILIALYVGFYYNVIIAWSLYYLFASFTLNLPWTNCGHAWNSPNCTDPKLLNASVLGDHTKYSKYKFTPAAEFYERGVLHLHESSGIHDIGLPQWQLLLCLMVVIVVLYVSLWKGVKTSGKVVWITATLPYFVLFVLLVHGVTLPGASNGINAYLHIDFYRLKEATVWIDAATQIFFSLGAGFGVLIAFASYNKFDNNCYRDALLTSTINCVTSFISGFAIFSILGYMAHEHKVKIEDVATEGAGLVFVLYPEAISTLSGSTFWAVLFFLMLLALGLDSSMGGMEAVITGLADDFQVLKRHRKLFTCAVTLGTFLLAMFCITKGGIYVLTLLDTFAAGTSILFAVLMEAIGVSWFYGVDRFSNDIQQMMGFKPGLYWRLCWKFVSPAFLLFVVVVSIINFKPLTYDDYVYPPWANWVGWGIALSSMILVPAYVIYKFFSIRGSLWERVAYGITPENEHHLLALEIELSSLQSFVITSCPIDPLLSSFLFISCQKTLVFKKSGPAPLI
Assay [3] deals with Sodium-dependent serotonin transporter (Rattus norvegicus, UniProt P31652). Briefly: Inhibition of [3H]5-HT uptake into rat synaptosomes by Serotonin transporter. In kind it is functional, subcellular, Brain.
Sequence of Sodium-dependent serotonin transporter (P31652 whole entry): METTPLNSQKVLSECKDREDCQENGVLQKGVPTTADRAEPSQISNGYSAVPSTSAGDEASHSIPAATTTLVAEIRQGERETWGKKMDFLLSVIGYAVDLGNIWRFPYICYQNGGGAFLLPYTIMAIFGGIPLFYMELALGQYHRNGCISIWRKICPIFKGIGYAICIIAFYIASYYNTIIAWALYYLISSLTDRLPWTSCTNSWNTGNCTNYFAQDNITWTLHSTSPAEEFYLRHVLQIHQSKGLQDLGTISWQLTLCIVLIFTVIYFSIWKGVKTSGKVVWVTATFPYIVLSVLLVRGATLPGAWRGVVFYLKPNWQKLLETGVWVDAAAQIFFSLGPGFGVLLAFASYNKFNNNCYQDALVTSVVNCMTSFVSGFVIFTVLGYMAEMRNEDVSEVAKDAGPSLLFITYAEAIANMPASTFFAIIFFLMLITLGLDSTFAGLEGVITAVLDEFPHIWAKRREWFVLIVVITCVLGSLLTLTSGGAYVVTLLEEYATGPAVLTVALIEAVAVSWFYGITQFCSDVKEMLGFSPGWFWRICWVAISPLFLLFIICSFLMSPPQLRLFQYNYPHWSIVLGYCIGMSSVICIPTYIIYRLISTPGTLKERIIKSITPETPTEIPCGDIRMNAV
In assay [4] the target is Sodium-dependent dopamine transporter (Rattus norvegicus, UniProt P23977). Briefly: Inhibition of [3H]DA uptake at Dopamine transporter into rat nerve endings (synaptosomes). In kind it is subcellular, Brain.
Sequence of Sodium-dependent dopamine transporter (P23977 whole entry): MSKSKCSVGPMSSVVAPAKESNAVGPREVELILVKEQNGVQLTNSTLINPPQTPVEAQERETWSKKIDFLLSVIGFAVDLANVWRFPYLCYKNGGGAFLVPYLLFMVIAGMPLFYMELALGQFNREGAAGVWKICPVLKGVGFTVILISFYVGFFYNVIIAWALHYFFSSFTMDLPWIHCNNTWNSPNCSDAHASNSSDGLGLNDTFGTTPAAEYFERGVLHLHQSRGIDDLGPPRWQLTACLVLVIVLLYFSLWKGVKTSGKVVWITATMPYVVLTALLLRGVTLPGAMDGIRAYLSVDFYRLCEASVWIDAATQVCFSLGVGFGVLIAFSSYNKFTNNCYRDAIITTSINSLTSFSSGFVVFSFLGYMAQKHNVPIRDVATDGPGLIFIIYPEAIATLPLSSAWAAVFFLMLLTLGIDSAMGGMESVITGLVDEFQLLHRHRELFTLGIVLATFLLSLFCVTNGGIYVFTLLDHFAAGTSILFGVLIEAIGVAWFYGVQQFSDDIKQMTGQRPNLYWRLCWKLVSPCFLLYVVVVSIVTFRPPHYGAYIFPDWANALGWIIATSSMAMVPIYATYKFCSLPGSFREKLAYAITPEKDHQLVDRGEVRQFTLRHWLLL

Sequence of Monoamine transporters; serotonin & dopamine (Rattus norvegicus) (P23977 whole entry, looked up): as the sequence (P23977 whole entry) above
Sequence of Monoamine transporters; serotonin & dopamine (Rattus norvegicus) (P31652 whole entry, looked up): as the sequence (P31652 whole entry) above

In general, Ki refers to the equilibrium dissociation constant of an inhibitor or competing ligand from its target. `CN1CC[C@@H](c2ccc(Cl)cc2)[C@H](C(=O)NCCCCCNC(=O)[C@@H]2CN(C)CC[C@H]2c2ccc(Cl)cc2)C1`: the Ratio in assay [1] was 1630. The inhibition constant Ki stood at 399 nM in assay [2], 1.2 nM in assay [3] and 1960 nM in assay [4].

For `CN1CC[C@@H](c2ccc(Cl)cc2)[C@H](C(=O)NCc2ccc(CNC(=O)[C@@H]3CN(C)CC[C@H]3c3ccc(Cl)cc3)cc2)C1`, the Ratio in assay [1] is above 7000. Also, the inhibition constant Ki in assay [2] came to 74 nM; in assay [3], 0.32 nM; in assay [4], 2270 nM.

On to `CN1CC[C@@H](c2ccc(Cl)cc2)[C@H](C(=O)NCc2ccc(CNC(=O)c3ccc(C(F)(F)F)cc3)cc2)C1`, for which, in assay [1], the Ratio was above 12. For the same molecule, the Ki in assay [2] was 651 nM; in assay [3], 334 nM; in assay [4], above 4000 nM.

`COc1ccc(C(=O)NCc2ccc(CNC(=O)[C@@H]3CN(C)CC[C@H]3c3ccc(Cl)cc3)cc2)cc1` gave an inhibition constant (Ki) in assay [3] of 92 nM.

`CN1CC[C@@H](c2ccc(Cl)cc2)[C@H](C(=O)NCc2ccc(CNC(=O)c3cccc(Cl)c3)cc2)C1`: the Ratio in assay [1] was above 121. Besides, the Ki is 1040 nM in assay [2], 33 nM in assay [3] and above 4000 nM in assay [4].

With `CN1CC[C@@H](c2ccc(Cl)cc2)[C@H](C(=O)NCc2ccc(CNC(=O)c3ccc(Cl)cc3)cc2)C1`, the Ratio in assay [1] was 44. In addition, the figures for the inhibition constant (Ki) in assay [2], in assay [3] and in assay [4] were 1540 nM, 84 nM and 3710 nM, respectively.

As for `CN1CC[C@@H](c2ccc(Cl)cc2)[C@H](C(=O)NCc2ccc(CNC(=O)/C=C/c3ccc(Cl)cc3)cc2)C1`, the Ratio in assay [1] is above 29. In addition, the inhibition constant (Ki) in assay [2] was above 2000 nM; in assay [3], 69 nM; in assay [4], above 2000 nM.

Regarding `CN1CC[C@@H](c2ccc(Cl)cc2)[C@H](C(=O)NCc2ccc(CNC(=O)c3ccccc3)cc2)C1`, in assay [3], the Ki amounted to 30 nM.

In the case of `Cc1ccc(C(=O)NCc2ccc(CNC(=O)[C@@H]3CN(C)CC[C@H]3c3ccc(Cl)cc3)cc2)cc1`, in assay [1], the Ratio was above 36. Also, the values for the Ki in assay [2], in assay [3] and in assay [4] were above 1000 nM, 195 nM and above 7000 nM, respectively.

On to `CN1CC[C@@H](c2ccc(Cl)cc2)[C@H](C(=O)NCc2ccc(CNC(=O)CCc3ccccc3)cc2)C1`, for which the Ratio in assay [1] was above 30. The Ki was above 1000 nM in assay [2], 67 nM in assay [3] and above 2000 nM in assay [4].

In the case of `CN1CC[C@@H](c2ccc(Cl)cc2)[C@H](C(=O)NCc2ccc(CNC(=O)c3ccc(Cl)cc3Cl)cc2)C1`, the inhibition constant (Ki) in assay [3] is 139 nM.

On to `CN1CC[C@@H](c2ccc(Cl)cc2)[C@H](C(=O)NCc2ccc(CNC(=O)c3cccc(C(F)(F)F)c3)cc2)C1`, for which, in assay [1], the Ratio was above 143. Further, the figures for the Ki in assay [2], in assay [3] and in assay [4] were 508 nM, 35 nM and above 5000 nM, respectively.
